Measured values taken from ChEMBL document CHEMBL5029166, “Development of BET inhibitors as potential treatments for cancer: A new carboline chemotype” (Bioorg Med Chem Lett, 2021).
≈ marks a conversion by molar mass, not a printed value.

Tests used:
[1] = Metabolic stability in dog liver microsomes assessed as half life measured upto 120 mins; type: ADME, Canis lupus familiaris, Microsome
[2] = Metabolic stability in mouse liver microsomes assessed as half life measured upto 120 mins; type: ADME, Microsome
[3] = Metabolic stability in rat liver microsomes assessed as half life measured upto 120 mins; type: ADME, Microsome
[4] = Metabolic stability in monkey liver microsomes assessed as half life measured upto 120 mins; type: ADME, Microsome; conditions: macaca
[5] = target: Bromodomain-containing protein 4 (Homo sapiens, UniProt O60885); test: Inhibition of BRD4 (unknown origin)
[6] = Antiproliferative activity against human JJN-3R cells assessed as reduction in cell viability; type: functional, cell-based
[7] = Metabolic stability in human liver microsomes assessed as half life measured upto 120 mins; type: ADME, Microsome
[8] = AUC in mouse at 3 mg/kg, po measured after 24 hrs; type: ADME, organism-based; set-up: route oral, dose 3 mg/kg, time 24 hrs; conditions: in vivo
[9] = Metabolic stability in human liver microsomes assessed as compound remaining; type: ADME, Microsome
[10] = Metabolic stability in rat liver microsomes assessed as compound remaining; type: ADME, Microsome
[11] = Metabolic stability in mouse liver microsomes assessed as compound remaining; type: ADME, Microsome
[12] = Permeability of the compound by PAMPA; type: ADME; conditions: read-out: permeability
[13] = Anticancer activity against human TNBC cancer tissue xenografted PDTX mouse model assessed as tumor growth inhibition at 4 mg/kg, po treated 5-day on/2-day off regimen for 2 weeks after 27 days of tumor implantation; type: functional; conditions: Breast carcinoma cell, 336 h, read-out: TGI
[14] = Anticancer activity against human TNBC cancer tissue xenografted PDTX po dosed mouse model assessed as growth inhibition treated 5-day on/2-day off regimen for 2 weeks after 27 days of tumor implantation; type: functional; conditions: Breast carcinoma cell, 336 h, read-out: MED
[15] = Solubility of the compound in pH 6.5 phosphate buffer; type: physicochemical

| SMILES | half-life [1] | half-life [2] | half-life [3] | half-life [4] | IC50 [5] | IC50 [6] | half-life [7] | AUC at 24 h [8] | Stability [9] | Stability [10] | Stability [11] | Papp [12] | inhibition in vivo at 4 mg/kg [13] | minimal effective dose [14] | solubility [15] |
| --- | --- | --- | --- | --- | --- | --- | --- | --- | --- | --- | --- | --- | --- | --- | --- |
| Cc1nnn(C)c1-c1cc(F)c2c3ncc(C(C)(C)O)cc3n([C@H](c3ccccc3)C3CCOCC3)c2c1 | 29 min | 26 min | 10 min | 5 min | 0.7 nM | 51 nM | 9 min |  |  |  |  |  |  |  |  |
| Cc1nnn(C)c1-c1cnc2c3ccc(C(C)(C)O)cc3n([C@H](c3ccccc3)C3CCOCC3)c2c1 [EZOBRESIB] | 20 min | 23 min | 40 min | 11 min | 0.8 nM | 3.6 nM | 36 min |  |  |  |  |  |  |  |  |
| [2H]C([2H])([2H])c1nnn(C)c1-c1cc2c(cc1Cl)c1ncc(C(C)(C)O)cc1n2[C@H](c1ccccc1)C1CCOCC1 |  |  |  |  |  | 260 nM |  |  |  |  |  |  |  |  |  |
| [2H]C([2H])([2H])c1nnn(C)c1-c1cc2c(cc1F)c1ncc(C(C)(C)O)cc1n2[C@@H](CCC)c1ncccc1F | 14 min | 53 min | 37 min | 36 min | 0.5 nM | 2.4 nM | 74 min |  |  |  |  |  |  |  |  |
| Cc1sc2c(c1C)C(c1ccc(Cl)cc1)=N[C@@H](CC(=O)OC(C)(C)C)c1nnc(C)n1-2 |  |  |  |  |  |  |  | 7.4 µM·h |  |  |  |  |  |  |  |
| Cc1nnn(C)c1-c1cc2c(cc1F)c1ncc(C(C)(C)O)cc1n2[C@H](c1ccccc1)C1CCOCC1 | 22 min | 21 min | 7 min | 9 min | 1.3 nM | 6.2 nM | 25 min |  |  |  |  |  |  |  |  |
| Cc1nnn(C)c1-c1ccc2c3ncc(C(C)(C)O)cc3n([C@H](c3ccccc3)C3CCOCC3)c2c1F |  |  |  |  | 4 nM | 4.5 nM |  |  | 7% | 3% | 72% |  |  |  |  |
| [2H]C([2H])([2H])c1nnn(C)c1-c1cc2c(cc1F)c1ncc(C(C)(C)O)cc1n2[C@H](c1ncccc1F)C1CCOCC1 | 22 min | 32 min | 87 min | 21 min | 0.6 nM | 5.3 nM | 95 min | 11.1 µM·h |  |  |  | 55 ×10⁻⁶ cm/s | 76% | 4 mg/kg |  |
| [2H]C([2H])([2H])c1nnn(C)c1-c1cc2c(cc1F)c1ncc(C(C)(C)O)cc1n2[C@H](c1ccccc1)C1CCOCC1 | 46 min | 46 min | 9 min | 14 min | 0.4 nM | 7.6 nM | 54 min | 10 µM·h |  |  |  | 84 ×10⁻⁶ cm/s |  |  | 13 µg/mL (≈ 25.2 µM) |
| Cc1nnn(C)c1-c1ccc2c3ncc(C(C)(C)O)cc3n([C@H](c3ccccc3)C3CCOCC3)c2c1 | 15 min | 11 min | 3 min | 4 min | 0.6 nM | 1.8 nM | 7 min |  |  |  |  |  |  |  |  |
| [2H]C([2H])([2H])c1nnn(C)c1-c1cc2c(cc1F)c1ncc(C(C)(C)O)cc1n2[C@H](c1cc(C)on1)C1CCOCC1 | 53 min | 31 min | 1 min | 12 min | 0.6 nM | 12 nM | 61 min |  |  |  |  | 30 ×10⁻⁶ cm/s |  |  |  |
| [2H]C([2H])([2H])c1nnn(C)c1-c1cc2c(cn1)c1ncc(C(C)(C)O)cc1n2[C@H](c1ccccc1)C1CCOCC1 | 120 min | 120 min | 46 min | 92 min |  | 22 nM | 120 min |  |  |  |  |  |  |  |  |
